Measured values taken from US5962456A, “N-acylpiperazine derivative, anti-ulcer drug, and antibacterial drug” (Shiseido Co., Ltd., priority 1996, dated 1999).

System: isolated gastric fundic gland
Assay: CAP: Acid Secretion Inhibition Test In Vitro ([14C]-aminopyrine uptake)
Format: cell-based, rabbit (male Japanese White)
Details: Oryctolagus cuniculus; final concentration 10^-5 M; histamine 10^-5 M; rabbit gastric fundic glands; read-out: CAP acid secretion inhibitory rate
Description: CAP: Acid Secretion Inhibition Test In Vitro
The acid secretion inhibitory activity in a cell level is studied. It can also be used for studying the mechanism of the effect. […]
ii-a) Preparation of Isolated Gastric Fundus Gland Suspension
First, an isolated gastric fundic gland sample was prepared. Namely, a male Japanese White rabbit (2.5 to 3 kg) was anesthetized to death with Nembutal™ and then the abdomen was incised. Immediately thereafter, the stomach was removed and, after its pyloric and cardiac antrum were severed, incised along its greater curvature into two sheets. The gastric contents adhering to the mucosal surface was washed out with ice-cooled PBS (-) and then carefully washed therein. The gastric wall was spread on a cork board with its mucosal surface facing up and the feed and mucus thereon were completely removed with sterile gauze. The mucosa was separated therefrom by a spatula and then collected in ice-cooled PBS (-). After being washed twice with PBS (-), the mucosa was minced into 2-3 mm^3 pieces by scissors. These pieces were further washed twice with a nutrient solution. […] Into 70 ml of the nutrient solution containing 1 mg/ml of collagenase, minced mucosal pieces were dispersed and intensely stirred in a conical flask with a stirrer at 37° C. for 40 to 60 minutes. During this period, 100% O2 was sprayed on the nutrient solution surface and the pH was appropriately measured such that it was immediately adjusted to pH 7.4, when the value was therebelow, with a base. The nutrient solution was added to the reaction solution so as to attain the total amount of about 200 ml. After being filtered through a mesh, the suspension was divisionally introduced into 50 ml centrifuge tubes and left for 15 minutes such that gastric fundic gland was deposited. The supernatant was repeatedly removed by an aspirator, dispersed in the nutrient solution, and then left such that the gastric fundic gland was washed three times. At this time, without using a pipette, the suspension was alternately introduced into two centrifuge tubes so as to effect dispersion. The number of cells was counted under microscope and adjusted to 1.6×10^6 cells/ml. […]
ii-b) [^14 C]-aminopyrine Uptake Test
Then, [^14 C]-aminopyrine uptake test was performed. After an Eppendorf tube was weighed, 10 μl (final concentration: 10^-5 M) of histamine dissolved in the above-mentioned nutrient solution, 10 μl (final concentration: 10^-5 M) of the test compound dissolved in DMSO, and 10 μl (final concentration: 0.05 μCi/ml) of [^14 C]-aminopyrine diluted with the nutrient solution were introduced therein and then 970 μl of the isolated gastric fundic gland suspension prepared above was added thereto. […] After being centrifuged for 30 minutes, 200 μl of its supernatant was collected into a mini-vial, while the rest was removed by an aspirator. The gland pellet was completely dried as the tube with its lid being opened was kept for one night in a drying oven at 80° C. and then the lid was closed and the weight was determined at room temperature. Then 100 μl of 1N KOH was added thereto and the tube with its lid being closed was treated at 60° C. for 1 to 2 hours so as to dissolve the pellet. Then, the contents thereof were transferred to a mini-vial. Into the mini-vial containing the supernatant or gland pellet, 4 ml of Atomlite™ was added and then the radioactivity was measured by a liquid scintillation counter. Here, after the radioactivity of the gland pellet was corrected by using a sample in which 20 mM of NaSCN was added so as to cancel the hydrogen ion concentration gradient, the integration ratio of aminopyrine specifically trapped by the gland pellet was calculated. This experiment was performed in duplicate. […]
ii-c) Calculation of the Accumulation Rate of Aminopyrine
Here, its principle will be briefly explained. In the isolated gastric fundic gland, acid is accumulated in a space between its secretory tubule and intraglandular cavity.

Structure (SMILES): CC(C)=CCC/C(C)=C/COc1ccc(C(=O)N2CCN(CCNC(=O)c3ccc4c(c3)OCO4)CC2)cc1 [Example 1, 1-(4-geranyloxy)benzoyl-4-[2-(piperonyloylamino)ethyl]piperazine]
- inhibition at 10 µM: 100%
